Non-standard residues stand in square brackets, D forms with d. Residues, ends and D or L forms follow the SMILES beside them. Aoc = NCCCCCCCC(=O)O; Ahx = NCCCCCC(=O)O; NEtG = CCNCC(=O)O; Sar = CNCC(=O)O
How the values were obtained:
[1] = target: thrombin-stimulated platelets (Homo sapiens, UniProt P05106+P08514); experiment: Fibrinogen-Binding Assay (125I-fibrinogen binding to platelets); conditions: 125I-fibrinogen 0.176 μmol/liter, thrombin-stimulated platelets; read-out: Inhibition of 125I-Fibrinogen Binding to Platelets IC50
Procedure: Platelets are washed free of plasma constituents by the albumin density-gradient technique of Walsh, P. N., et al., Br. J. Haematol. […] After these additions, the final platelet count in the mixture is 1×10^11 /liter. After incubation for an additional 30 minutes at 22°-25° C., bound and free ligand are separated by centrifuging 50 μl of the mixture through 300 μl of 20% sucrose at 12,000×g for 4 minutes. The platelet pellet is then separated from the rest of the mixture to determine platelet-bound radioactivity. Nonspecific binding is measured in mixtures containing an excess of unlabeled ligand. […] The IC50 is derived by plotting residual fibrinogen binding against the logarithm of the sample compound's concentration.

[2] = target: fixed activated platelets (Homo sapiens, UniProt P05106+P08514); experiment: Platelet Aggregation Assay (fibrinogen-mediated aggregation of fixed-activated platelets); type: cell-based; conditions: for IC50: fixed activated platelets, human fibrinogen 250 μg/ml, read-out: Inhibition of Fibrinogen Mediated Platelet Aggregation IC50; for inhibition at 25 µM: read-out: Inhibition of Fibrinogen Mediated Platelet Aggregation % inhibition at 25 μM
Procedure: PLATELET AGGREGATION ASSAY
Preparation of Fixed-Activated Platelets
To the activated platelets is added paraformaldehyde to a final concentration of 0.50% and this incubated at room temperature for 30 minutes. The fixed activated platelets are then collected by centrifugation at 650×g for 15 minutes.
Platelet Aggregation Assay
The fixed activated platelets are incubated with a selected dose of the compound to be tested for platelet aggregation inhibition for one minute and aggregation initiated by addition of human fibrinogen to a final concentration of 250 μg/ml. A platelet aggregation profiler Model PAP-4 is used to record the platelet aggregation.

fixed activated platelets, sequence (P08514 32-1039): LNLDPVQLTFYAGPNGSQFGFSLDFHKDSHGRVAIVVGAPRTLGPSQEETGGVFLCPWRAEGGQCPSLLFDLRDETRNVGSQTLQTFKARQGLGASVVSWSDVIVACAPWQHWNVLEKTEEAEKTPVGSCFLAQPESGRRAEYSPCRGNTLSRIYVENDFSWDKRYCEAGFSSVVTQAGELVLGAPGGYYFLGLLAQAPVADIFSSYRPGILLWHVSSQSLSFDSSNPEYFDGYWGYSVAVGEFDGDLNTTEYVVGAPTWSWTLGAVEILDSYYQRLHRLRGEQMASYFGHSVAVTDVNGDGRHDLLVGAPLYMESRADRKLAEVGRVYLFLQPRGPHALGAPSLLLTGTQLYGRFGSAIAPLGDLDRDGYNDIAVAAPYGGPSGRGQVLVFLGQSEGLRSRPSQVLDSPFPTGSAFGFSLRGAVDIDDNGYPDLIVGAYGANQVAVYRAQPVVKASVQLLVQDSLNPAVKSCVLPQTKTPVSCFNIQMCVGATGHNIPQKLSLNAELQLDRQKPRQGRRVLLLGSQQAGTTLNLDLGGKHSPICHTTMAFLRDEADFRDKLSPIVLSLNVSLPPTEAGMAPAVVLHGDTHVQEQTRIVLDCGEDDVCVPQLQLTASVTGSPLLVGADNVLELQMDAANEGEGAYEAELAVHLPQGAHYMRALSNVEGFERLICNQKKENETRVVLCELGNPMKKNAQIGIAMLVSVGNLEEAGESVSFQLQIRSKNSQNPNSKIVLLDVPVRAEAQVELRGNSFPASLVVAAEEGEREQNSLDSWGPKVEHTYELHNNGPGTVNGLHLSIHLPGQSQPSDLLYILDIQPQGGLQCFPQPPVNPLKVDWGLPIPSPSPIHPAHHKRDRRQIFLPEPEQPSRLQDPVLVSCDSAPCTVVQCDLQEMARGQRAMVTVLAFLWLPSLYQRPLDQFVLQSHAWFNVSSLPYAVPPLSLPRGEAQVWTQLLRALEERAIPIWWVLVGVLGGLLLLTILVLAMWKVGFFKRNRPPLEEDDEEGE
fixed activated platelets, sequence (P05106 27-788): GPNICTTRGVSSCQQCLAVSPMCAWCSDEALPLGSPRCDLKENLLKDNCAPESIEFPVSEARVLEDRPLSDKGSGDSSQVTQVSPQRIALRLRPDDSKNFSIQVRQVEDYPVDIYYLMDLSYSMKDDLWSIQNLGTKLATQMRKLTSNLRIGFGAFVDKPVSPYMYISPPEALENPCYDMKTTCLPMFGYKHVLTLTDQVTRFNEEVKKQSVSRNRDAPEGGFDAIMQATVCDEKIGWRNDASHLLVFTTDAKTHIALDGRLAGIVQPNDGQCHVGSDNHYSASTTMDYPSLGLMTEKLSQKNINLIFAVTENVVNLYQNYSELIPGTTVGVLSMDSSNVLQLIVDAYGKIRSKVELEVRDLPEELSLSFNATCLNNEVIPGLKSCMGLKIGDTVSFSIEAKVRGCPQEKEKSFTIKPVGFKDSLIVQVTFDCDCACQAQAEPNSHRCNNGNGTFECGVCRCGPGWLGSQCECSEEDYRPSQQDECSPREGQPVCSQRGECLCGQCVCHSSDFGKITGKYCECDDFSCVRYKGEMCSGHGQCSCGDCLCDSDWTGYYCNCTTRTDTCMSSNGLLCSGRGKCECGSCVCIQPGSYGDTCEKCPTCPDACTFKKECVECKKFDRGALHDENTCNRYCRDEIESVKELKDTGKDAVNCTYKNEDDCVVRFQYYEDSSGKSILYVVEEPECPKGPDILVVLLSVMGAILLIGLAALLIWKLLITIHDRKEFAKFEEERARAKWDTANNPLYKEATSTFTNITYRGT
thrombin-stimulated platelets, sequence (P08514 32-1039): as the sequence (P08514 32-1039) above
thrombin-stimulated platelets, sequence (P05106 27-788): as the sequence (P05106 27-788) above

Work on `CCN(CC(=O)N[C@@H](CC(=O)O)C(=O)N[C@@H](CC(C)C)C(=O)O)C(=O)CCCCNC(=N)N` [5-guanidinopentanoyl-N-(ethyl)-glycyl-L-aspartyl-L-leucine] yielded an IC50 [1] of 390 nM, an IC50 [2] of 540 nM and an inhibition at 25 µM [2] of 90%.
`CCc1nccn1CCCCCC(=O)N(C)CC(=O)N[C@@H](CC(=O)O)C(=O)N[C@H](C(=O)O)C(C)C` [6-(2-Ethylimidazol-1-yl)hexanoyl-sarcosyl-L-aspartyl-L-valine] showed an IC50 [1] of 313 nM, an IC50 [2] of 4900 nM and an inhibition at 25 µM [2] of 89%.
In the case of `CCN(CC(=O)N[C@@H](CC(=O)O)C(=O)N[C@H](C(=O)O)C(C)C)C(=O)CCCCCn1ccnc1C` [6-(2-Methylimidazol-1-yl)hexanoyl-N-(ethyl)-glycyl-L-aspartyl-L-valine], the IC50 [1] is reported as 350 nM, the IC50 [2] is reported as 1900 nM and the inhibition at 25 µM [2] is reported as 93%.
With `CC(C)[C@H](NC(=O)[C@H](CC(=O)O)NC(=O)CN(C)C(=O)CCCCCn1ccnc1-c1ccccc1)C(=O)O` [6-(2-Phenylimidazol-1-yl)hexanoyl-sarcosyl-L-aspartyl-L-valine] the IC50 [1] was 380 nM, the IC50 [2] was 5600 nM and the inhibition at 25 µM [2] was 84%.
`CCN(CC(=O)N[C@@H](CC(=O)O)C(=O)N[C@H](C(=O)O)C(C)C)C(=O)CCCCCn1ccnc1` [6-(Imidazol-1-yl)-hexanoyl-N-ethylglycyl-L-aspartyl-L-valine] showed an IC50 [1] of 900 nM, an IC50 [2] of 1000 nM and an inhibition at 25 µM [2] of 95%.
For `CC(C)[C@H](NC(=O)[C@H](CC(=O)O)NC(=O)CNC(=O)CCCCCn1ccnc1)C(=O)O` [6-(Imidazol-1-yl)-hexanoyl-glycyl-L-aspartyl L-valine], the IC50 [1] was 2800 nM, the IC50 [2] was 17000 nM and the inhibition at 25 µM [2] was 67%.
`CCN(CC(=O)N[C@@H](CC(=O)O)C(=O)N[C@H](C(=O)O)C(C)C)C(=O)CCCCCN` [6-Aminohexanoyl-N-ethylglycyl-L-aspartyl-L-valine] (H-[Ahx][NEtG]DV-OH) showed an IC50 [1] of 4000 nM, an IC50 [2] of 4100 nM and an inhibition at 25 µM [2] of 92%.
`CC(C)C[C@H](NC(=O)[C@H](CC(=O)O)NC(=O)CN(C)C(=O)CCCCCNC(=N)N)C(=O)O` [6-Guanidinohexanoyl-L-sarcosyl-L-aspartyl-L-leucine] gave an IC50 [1] of 90 nM, an IC50 [2] of 330 nM and an inhibition at 25 µM [2] of 88%.
`CC(C)[C@H](NC(=O)[C@H](CC(=O)O)NC(=O)CN(C)C(=O)CCCCCNC(=N)N)C(=O)O` [6-Guanidinohexanoyl-L-sarcosyl-L-aspartyl-L-valine] was tested, and the IC50 [1] was 320 nM, the IC50 [2] was 630 nM and the inhibition at 25 µM [2] was 97%.
`CCCC(C)CN(CC(=O)N[C@@H](CC(=O)O)C(=O)N[C@H](C(=O)O)C(C)C)C(=O)CCCCCNC(=N)N` (stereo partly drawn) [6-Guanidinohexanoyl-N-(2-methylpentyl)glycine-L-aspartic acid-L-valine] was tested, and the IC50 [1] was > 200000 nM, the IC50 [2] was 10500 nM and the inhibition at 25 µM [2] was 86%.
`CC(C)[C@H](NC(=O)[C@H](CC(=O)O)NC(=O)CN(C(=O)CCCCCNC(=N)N)C(C)C)C(=O)O` [6-Guanidinohexanoyl-N-(2-propyl)glycyl-L-aspartyl-L-valine] gave an IC50 [1] of 1100 nM, an IC50 [2] of 8600 nM and an inhibition at 25 µM [2] of 83%.
With `CCN(CC(=O)N[C@@H](CC(=O)O)C(=O)N[C@@H](Cc1c[nH]c2ccccc12)C(=O)O)C(=O)CCCCCNC(=N)N` [6-Guanidinohexanoyl-N-(ethyl)glycyl-L-aspartyl-L-tryptophan] the IC50 [1] was 130 nM, the IC50 [2] was 1300 nM and the inhibition at 25 µM [2] was 91%.
`CCN(CC(=O)N[C@@H](CC(=O)O)C(=O)N[C@@H](Cc1ccc(O)cc1)C(=O)O)C(=O)CCCCCNC(=N)N` [6-Guanidinohexanoyl-N-(ethyl)glycyl-L-aspartyl-L-tyrosine] was tested, and the IC50 [1] was 180 nM, the IC50 [2] was 1250 nM and the inhibition at 25 µM [2] was 95%.
With `CC(C)[C@H](NC(=O)[C@H](CC(=O)O)NC(=O)CN(Cc1ccccc1)C(=O)CCCCCNC(=N)N)C(=O)O` [6-Guanidinohexanoyl-N-benzylglycyl-L-aspartyl-L-valine] the IC50 [1] was 840 nM, the IC50 [2] was 5700 nM and the inhibition at 25 µM [2] was 85%.
Work on `CC(C)[C@H](NC(=O)[C@H](CC(=O)O)NC(=O)CN(C(=O)CCCCCNC(=N)N)C1CCCC1)C(=O)O` [6-Guanidinohexanoyl-N-cyclopentylglycine-L-aspartyl-L-valine] yielded an IC50 [1] of 880 nM, an IC50 [2] of 5700 nM and an inhibition at 25 µM [2] of 76%.
For `CCN(CC(=O)N[C@@H](CC(=O)O)C(=O)NC(CC)(CC)C(=O)O)C(=O)CCCCCNC(=N)N` [6-Guanidinohexanoyl-N-ethyl-glycyl-L-aspartyl-2,2-diethylglycine], the IC50 [1] was 5000 nM, the IC50 [2] was 11400 nM and the inhibition at 25 µM [2] was 73%.
In the case of `CCN(CC(=O)N[C@@H](CC(=O)O)C(=O)N[C@H](C(=O)O)C(C)C)C(=O)CCCCCNC(=N)N` [6-Guanidinohexanoyl-N-ethylglycine-L-aspartyl-L-valine], the IC50 [1] is reported as 120 nM, the IC50 [2] is reported as 380 nM and the inhibition at 25 µM [2] is reported as 96%.
Work on `CCN(CC(=O)N[C@@H](CC(=O)O)C(=O)N[C@@H](CCCNC(=N)N)C(=O)O)C(=O)CCCCCNC(=N)N` [6-Guanidinohexanoyl-N-ethylglycyl-L-aspartyl-L-arginine] yielded an IC50 [1] of 240 nM, an IC50 [2] of 1400 nM and an inhibition at 25 µM [2] of 97%.
`CC[C@H](C)[C@H](NC(=O)[C@H](CC(=O)O)NC(=O)CN(CC)C(=O)CCCCCNC(=N)N)C(=O)O` [6-Guanidinohexanoyl-N-ethylglycyl-L-aspartyl-L-isoleucine] was tested, and the IC50 [1] was 50 nM, the IC50 [2] was 560 nM and the inhibition at 25 µM [2] was 96%.
With `CCN(CC(=O)N[C@@H](CC(=O)O)C(=O)N[C@@H](Cc1ccccc1)C(=O)O)C(=O)CCCCCNC(=N)N` [6-Guanidinohexanoyl-N-ethylglycyl-L-aspartyl-L-phenylalanine] the IC50 [1] was 200 nM, the IC50 [2] was 1300 nM and the inhibition at 25 µM [2] was 97%.
Work on `CC(C)CN(CC(=O)N[C@@H](CC(=O)O)C(=O)N[C@H](C(=O)O)C(C)C)C(=O)CCCCCNC(=N)N` [6-Guanidinohexanoyl-N-isobutylglycyl-L-aspartyl-L-valine] yielded an IC50 [1] of 100 nM, an IC50 [2] of 1500 nM and an inhibition at 25 µM [2] of 86%.
In the case of `CC(C)[C@H](NC(=O)[C@H](CC(=O)O)NC(=O)CNC(=O)CCCCCNC(=N)N)C(=O)O` [6-Guanidinohexanoyl-glycyl-L-aspartyl-L-valine], the IC50 [1] is reported as 1400 nM, the IC50 [2] is reported as 6500 nM and the inhibition at 25 µM [2] is reported as 90%.
Work on `CN(CC(=O)N[C@@H](CC(=O)O)C(=O)N[C@@H](CCCNC(=N)N)C(=O)O)C(=O)CCCCCNC(=N)N` [6-Guanidinohexanoyl-sarcosyl-L-aspartyl-L-arginine] yielded an IC50 [1] of 520 nM, an IC50 [2] of 2100 nM and an inhibition at 25 µM [2] of 97%.
For `CN(CC(=O)N[C@@H](CC(=O)O)C(=O)N[C@@H](CCCCN)C(=O)O)C(=O)CCCCCNC(=N)N` [6-Guanidinohexanoyl-sarcosyl-L-aspartyl-L-lysine], the IC50 [1] was 340 nM, the IC50 [2] was 4100 nM and the inhibition at 25 µM [2] was 86%.
In the case of `CN(CC(=O)N[C@@H](CC(=O)O)C(=O)N[C@@H](Cc1c[nH]c2ccccc12)C(=O)O)C(=O)CCCCCNC(=N)N` [6-Guanidinohexanoyl-sarcosyl-L-aspartyl-L-tryptophan], the IC50 [1] is reported as 190 nM, the IC50 [2] is reported as 6600 nM and the inhibition at 25 µM [2] is reported as 89%.
Work on `CN(CC(=O)N[C@@H](CC(=O)O)C(=O)N[C@@H](Cc1ccc(O)cc1)C(=O)O)C(=O)CCCCCNC(=N)N` [6-Guanidinohexanoyl-sarcosyl-L-aspartyl-L-tyrosine] yielded an IC50 [1] of 3600 nM, an IC50 [2] of 7300 nM and an inhibition at 25 µM [2] of 94%.
With `CCN(CC(=O)N[C@@H](CC(=O)O)C(=O)N[C@@H](CC(C)C)C(=O)O)C(=O)CCCCCNC(=N)N` [6-guanidinohexanoyl-N-ethyl-glycyl-L-aspartyl-L-leucine] the IC50 [1] was 5400 nM, the IC50 [2] was 560 nM and the inhibition at 25 µM [2] was 95.5%.
In the case of `CC(C)[C@H](NC(=O)[C@H](CC(=O)O)NC(=O)CCCCCCn1ccnc1)C(=O)O` [7-(Imidazol-1-yl)heptanoyl-L-aspartyl-L-valine], the IC50 [1] is reported as 2000 nM, the IC50 [2] is reported as > 25000 nM and the inhibition at 25 µM [2] is reported as 35%.
`CCN(CC(=O)N[C@@H](CC(=O)O)C(=O)N[C@H](C(=O)O)C(C)C)C(=O)CCCCCCn1ccnc1` [7-(Imidazol-1-yl)heptanoyl-N-(ethyl)glycyl-L-aspartyl-L-valine] gave an IC50 [1] of 1300 nM, an IC50 [2] of 10800 nM and an inhibition at 25 µM [2] of 82%.
With `CC(C)[C@H](NC(=O)[C@H](CC(=O)O)NC(=O)CN(C)C(=O)CCCCCCNC(=N)N)C(=O)O` [7-Guanidinoheptanoyl-L-sarcosyl-L-aspartyl-L-valine] the IC50 [1] was 5100 nM and the inhibition at 25 µM [2] was 14%.
Molecule `CC(C)[C@H](NC(=O)[C@H](CC(=O)O)NC(=O)CNC(=O)CCCCCCNC(=N)N)C(=O)O` [7-Guanidinoheptanoyl-glycyl-L-aspartyl-L-valine] has an IC50 [1] of 6400 nM, an IC50 [2] of 21000 nM and an inhibition at 25 µM [2] of 56%.
`CC(C)[C@H](NC(=O)[C@H](CC(=O)O)NC(=O)CCCCCCCn1ccnc1)C(=O)O` [8-(Imidazol-1-yl)-octanoyl-L-aspartyl-L-valine] gave an IC50 [1] of 860 nM, an IC50 [2] of 11600 nM and an inhibition at 25 µM [2] of 78%.
For `CC(C)[C@H](NC(=O)[C@H](CC(=O)O)NC(=O)CN(C)C(=O)CCCCCCCN)C(=O)O` [8-Aminooctanoyl-sarcosyl-L-aspartyl-L-valine] (H-[Aoc][Sar]DV-OH), the IC50 [1] was 230 nM, the IC50 [2] was 2600 nM and the inhibition at 25 µM [2] was 96%.

— US5332726A, “Antithrombotic peptides and pseudopeptides” (Rhone-Poulenc Rorer Pharmaceuticals Inc., priority 1992, dated 1994)
